Columns and labels:
[1] = test system: colon-infiltrating neutrophils (myeloperoxidase enzyme activity); test: Oxazolone-induced colon neutrophil infiltration model; type: in vivo, Balb/c mice; details: Mus musculus, po, 30 mg/kg orally 30 minutes prior to intrarectal oxazolone, colon myeloperoxidase activity 4 hours after, vs oxazolone control group, read-out: Inhibitory rate (%)
Description: Evaluation of Compounds in Oxazolone-Induced Colon Neutrophil Infiltration Model
<Sensitization with Oxazolone>
Five- to six-week-old male Balb/c mice (Charles River Japan) were shaven at the abdomen to an approximately 2 cm square area. A 100% ethanol solution containing 3% 4-ethoxymethylene-2-phenyl-2-oxazolin-5-one (hereinafter referred to as “oxazolone”; Sigma) was applied at 150 μl onto the abdomen of each mouse.
<Preparation of Emulsion Containing Oxazolone>
Distilled water (Otsuka Pharmaceutical) was added in an equivalent volume to 100% peanut oil (Kanto Kagaku) containing 1% oxazolone, and the components were vigorously mixed with a glass syringe (Top Co.), to prepare an emulsion containing 0.5% oxazolone.
<Induction with Oxazolone>
The mice were fasted on the 3rd day after oxazolone sensitization, and were injected with 100 μl of the emulsion containing 0.5% oxazolone prepared in the way described above intrarectally at a site approximately 3 cm from the anus under ether anesthesia on the 4th day.
<Colon-Infiltrating Neutrophil Assay>
Each compound was suspended or dissolved in an aqueous solution containing 0.5% methyl cellulose (Wako), and orally administered at 30 mg/kg 30 minutes prior to the intrarectal injection of oxazolone emulsion. Four hours after the intrarectal injection of oxazolone, mice were sacrificed by cervical dislocation, and colons were extirpated, dissected in the longitudinal direction, washed with physiological saline, and transferred to ice-cooled plastic centrifugation tubes. After adding 1 ml of 50 mM potassium phosphate buffer (hereinafter abbreviated as KPB) (pH 6.0) to the tube, and the tissue were homogenized with PHYSCOTRON (Microtec Nition Co., Ltd.), 2 ml of 50 mM KPB (pH 6.0) was added and the mixture was centrifuged at 3000 rpm, 4° C. for 10 minutes and the supernatant was removed. To the resultant precipitate was added 1 ml of 50 mM KPB (pH 6.0) containing 0.5% hexadecyltrimethyl-ammonium bromide (Sigma), and freeze-thawed 3 to 5 times using liquid nitrogen and hot water, centrifuged at 3000 rpm, 4° C. for 10 minutes to yield a supernatant. The myeloperoxidase enzyme activity in the supernatant was assayed in the following manner. Specifically, to 10 μl of the obtained supernatant was added 200 μl of 50 mM KPB (pH6.0) containing 0.017% o-dianisidine (Sigma) and 0.0005% hydrogen peroxide (Wako), incubated at 37° C., and the change in absorbance at 450 nm was continuously measured for 1 minute using an EL340 Automated Microplate Reader (BIO-TEK) in kinetic mode. The units were the rate of change in absorbance per minute (mO.D./min.). With regard to the effect of each compound, the inhibitory rate (%) with respect to the oxazolone control group, i.e. the oxazolone-injected/compound-free group, was shown in the table 3.

Jurkat cells = test: Jurkat cell adhesion system (adhesion to immobilized human fibronectin, PMA-stimulated); type: cell-based; details: concentration inhibiting by 50% the PMA-stimulated increase in number of adhered Jurkat cells on human fibronectin
Description: Evaluation of Compounds in Jurkat Cell Adhesion System
<Immobilization of Human Fibronectin in 96-Well Plate>
Human fibronectin (Becton Dickinson Biosciences) was diluted with phosphate-buffered saline (hereinafter abbreviated as PBS; Sigma) to 0.1-0.01 μg/ml, and the diluted solution was added to a 96-well plate (Becton Dickinson) at 50μ/well, and allowed to stand overnight at 4° C. On the following day, the supernatant was removed from the plate, and then PBS containing 1% bovine serum albumin (hereinafter abbreviated as BSA; Sigma) was added thereto at 100 μl/well and incubation was performed at 37° C. for 2 hours in a CO2 incubator (Hirasawa).
The supernatant was removed from each plate and Jurkat cells suspended in RPMI-1640 (Sigma) containing 1 mg/ml BSA were added at 80 μl/well for 2.5×10^5 cells/well. The compound diluted to different concentrations with RPMI-1640 containing 1 mg/ml BSA was immediately added at 10 μl/well, and then 100 nM phorbol myristate acetate (hereinafter abbreviated as PMA; Sigma) in RPMI-1640 containing 1 mg/ml BSA was added at 10 μl/well and the plate was incubated in a CO2 incubator at 37° C. for 45-60 minutes. The supernatant was removed from the plate and each well was washed several times with 100 μl/well of RPMI-1640, after which 50 mM citrate buffer (pH 5.0) containing 3.75 mM p-nitrophenol-N-acetyl-β-D-glucosaminide (Sigma) and 0.25% Triton X-100 (Sigma) were added at 60 μl/well, and the mixture was placed in a CO2 incubator and incubated at 37° C. for 45 minutes. After incubation, 50 mM glycine buffer (pH 10.4) containing 5 mM EDTA was added at 90 μl/well, and the absorbance at 405 nm was measured with an EL340 Automated Microplate Reader (BIO-TEK) to determine the adhered cell count. The concentration of each compound which inhibited the increase in the number of adhered cells by the PMA-stimulation by 50% was recorded as the IC50 (μM).

DSS-induced colitis = DSS-induced colitis model; type: in vivo, Balb/c mice; details: 30 mg/kg orally once a day for 5-7 successive days; 1-3% DSS in water for 5-7 days
Source text: Evaluation of Compounds in DSS-Induced Colitis Model
A 1-3% solution of dextran sulfate sodium (hereinafter abbreviated as DSS; ICN) in purified water (Otsuka Pharmaceutical) was fed freely to 6- to 7-week-old male Balb/c mice (Charles River Japan) for 5-7 days to induce colitis. Disease Activity Index (hereinafter abbreviated as DAI) scored based on fecal hardness, blood content in feces and body weight change, the number of neutrophils infiltrating the colon and the length of the colon were used as indexes to evaluate compounds. Each compound was suspended or dissolved in an aqueous solution containing 0.5% methyl cellulose (Wako), and orally administered at 30 mg/kg once a day, for 5-7 successive days.

Row | SMILES | inhibition in vivo at 30 mg/kg [1] [%] | IC50 (Jurkat cells) [µM] | improvement in comparison with the DSS control group (DAI, number of neutrophils infiltrating the colon, length of the colon) (DSS-induced colitis)
1 | CC1(C)CC(c2ccccc2N2CCN(CC3CC3)CC2)CC(C)(C)C1.Cl [Example 9, 1-Cyclopropylmethyl-4-[2-(3,3,5,5-tetramethylcyclohexyl)phenyl]piperazine hydrochloride] | 35 | – | –
2 | CCCCN1CCN(c2ccccc2C2CCC(C(C)(C)C)CC2)CC1.Cl (stereo not drawn) [Example 15, 1-Butyl-4-[2-(4-t-butylcyclohexyl)phenyl]piperazine hydrochloride] | – | 2.3 | particularly good improvement
3 | CCCN1CCN(c2ccc(N3CCOCC3)cc2C2=CC(C)(C)CC(C)(C)C2)CC1.Cl [Example 28, 4-[4-(4-Propylpiperazin-1-yl)-3-(3,3,5,5-tetramethylcyclohex-1-enyl)phenyl]morpholine hydrochloride] | 48 | – | particularly good improvement
4 | CCCCN1CCN(c2ccc(N3CCOCC3)cc2C2=CCC(C(C)(C)C)CC2)CC1.Cl (racemic) [Example 18, 4-[3-(4-t-Butylcyclohex-1-enyl)-4-(4-butylpiperazine-1-yl)phenyl]morpholine hydrochloride] | 50 | – | particularly good improvement
5 | CC(C)CN1CCN(c2ccccc2C2=CCC3(CC2)CC3)CC1.Cl [Example 34, 1-Isobutyl-4-(2-spiro[2.5]oct-5-en-6-ylphenyl)piperazine hydrochloride] | – | – | particularly good improvement
6 | CCC(=O)CN1CCN(c2ccccc2C2CCC(C)(C)CC2)CC1.Cl [Example 17, 1-{4-[2-(4,4-Dimethylcyclohexyl)phenyl]piperazin-1-yl}butan-2-one hydrochloride] | 30 | – | particularly good improvement
7 | COC1CCN(c2ccc(N3CCN(CC4CC4)CC3)c(C3=CCC(C(C)(C)C)CC3)c2)CC1.Cl (racemic) [Example 20, 1-[2-(4-t-Butylcyclohex-1-enyl)-4-(4-methoxypiperidin-1-yl)phenyl]-4-cyclopropylmethylpiperazine hydrochloride] | 38 | – | particularly good improvement
8 | COCCN1CCN(c2ccccc2C2CCC(C(C)(C)C)CC2)CC1.Cl (stereo not drawn) [Example 19, 1-[2-(4-t-Butylcyclohexyl)phenyl]-4-(2-methoxyethyl)piperazine hydrochloride] | – | – | particularly good improvement
9 | CCCCN1CCN(c2ccc(N3CCC(OC)CC3)cc2C2CC(C)(C)CC(C)(C)C2)CC1.Cl [Example 32, 1-Butyl-4-[4-(4-methoxypiperidin-1-yl)-2-(3,3,5,5-tetramethylcyclohexyl)phenyl]piperazine hydrochloride] | 51 | – | particularly good improvement
10 | CC1(C)C=C(c2ccccc2N2CCN(CC3CCOCC3)CC2)CC(C)(C)C1.Cl [Example 22, 1-(Tetrahydropyran-4-ylmethyl)-4-[2-(3,3,5,5-tetramethylcyclohex-1-enyl)phenyl]piperazine hydrochloride] | 28 | – | particularly good improvement
11 | CCC(=O)CN1CCN(c2ccc(N3CCOCC3)cc2C2=CCC(CC)(CC)CC2)CC1.Cl [Example 30, 1-{4-[2-(4,4-Diethylcyclohex-1-enyl)-4-morpholin-4-ylphenyl]piperazin-1-yl}butan-2-one hydrochloride] | 23 | – | particularly good improvement
12 | CCNC(=O)CN1CCN(c2ccccc2C2CCC(C(C)(C)C)CC2)CC1.Cl (stereo not drawn) [Example 10, 2-{4-[2-(4-t-Butylcyclohexyl)phenyl]piperazin-1-yl}-N-ethylacetamide hydrochloride] | – | 4.7 | –
13 | CCCCCN1CCN(c2cc(OC)ccc2C2CCC(C)(C)CC2)CC1.Cl [Example 1, 1-[2-(4,4-Dimethylcyclohexyl)-5-methoxyphenyl]-4-pentylpiperazine hydrochloride] | 45 | – | particularly good improvement
14 | CCCN1CCN(c2ccccc2C2CC(C)(C)CC(C)(C)C2)CC1.Cl [Example 31, 1-Propyl-4-[2-(3,3,5,5-tetramethylcyclohexyl)phenyl]piperazine hydrochloride] | 38 | – | particularly good improvement

Source: patent publication US7410971B2, “1,2-di(cyclic)substituted benzene compounds” (Eisai R&D Management Co., Ltd., priority 2003, dated 2008)
